In patent publication US5637619A, “Antitumor 2-aminocarbonyl-1, 2-bis(methylsulfonyl)-1-(substituted)hydrazines” (Yale University, priority 1995, dated 1997):
Where “and” joins values, the source holds several entries; their conditions need not be identical. Equal entries are not always repeated.

System: B16F10 melanoma
Assay: B16F10 melanoma, tumor growth delay in mice
Assay type: in vivo, C57BL/6 mice
Conditions: 100% DMSO
Description: B16F10 melanoma cells were grown in vitro as monolayers in minimum essential medium with Hank's salts supplemented with 10% fetal bovine serum and 1% 200 mM L-glutamine solution. Solid tumors were produced in C57BL/6 female mice 12- to 14-weeks of age by the intradermal injection in the right flank of each mouse of 0.1 mL of a cell suspension containing 10^6 B16F10 cells/mL from freshly trypsinized cultures. After 10-12 days, animals bearing approximately 100 mm^3 tumors were treated ip with compound III or IV dissolved in 100% DMSO for 6 consecutive days, and tumor volumes were measured on alternate days until reaching 1000 mm^3.
Five mice per group were employed in experiments with the B16F10 melanoma, and 8 mice per group with the M5076 sarcoma, the M109 carcinoma and the LX-1 carcinoma. A minimum of two dose levels per compound were included in each evaluation and drug therapy was initiated 24 h after tumor implantation for the M5076 sarcoma and M109 carcinoma. In the LX-1 experiment, tumor bearing mice were selected and sorted into treatment and control groups on day 6 post-tumor implant such that all tumor weights ranged from 50-100 mg and median tumor weights per group were reasonably similar. Therapeutic results are presented in terms of: (a) increases in lifespan reflected by the relative median survival time (MST) of treated versus control groups (i.e., %T/C values), and by long-term survivors, and (b) primary tumor growth inhibition (i.e., T-C values) determined by calculating the relative median times for treated (T) and control untreated (C) mice to grow tumors of a 0.5 g size for the LX-1 carcinoma or a 1 g size for the murine neoplasms. Tumor weights were interchangeable with tumor size on the basis of 1 mm^3 =1 mg. […] The activity criterion for tumor inhibition was a delay in tumor growth consistent with one log10 cell kill (LCK). The absolute T-C value needed to attain this level of efficacy varied from experiment to experiment and depended upon the tumor volume doubling time of the control mice in each study. Treated mice dying prior to day 10 in the ip M109 experiment, or dying before their tumors achieved 0.5 g for the LX-1 carcinoma or 1 g in size for all other sc tumor models, were considered to have died from drug toxicity. Groups of mice with more than one death due to drug toxicity were not used in the evaluation of antitumor efficacy. Statistical evaluations of data were performed using Gehan's generalized Wilcoxan test (Gehan, Biometrika, 1965, 52, 203-233).
In addition, both compounds III and IV were evaluated in 100% DMSO against the B16F10 melanoma implanted intradermally (id) in mice (Table III). In an initial experiment, compound IV produced a T-C of 15.5 days at a daily dosage level of 20 mg/kg administered once daily for six consecutive days beginning on day 10 post-implant. In the same experiment, using the same treatment schedule, a growth delay of 11 days was obtained with compound III. […] Thus, the aminocarbonyl component in this class of agents influences the magnitude of the antitumor effects obtained against the B16F10 melanoma.

Question: Which “T-C, growth delay” value (experiment a, 20 mg/kg/injection, qd × 6 from day 10, ip, 20 mg/kg) does the source give for `CS(=O)(=O)N(CCCl)N(C(=O)NCCCl)S(C)(=O)=O` [Compound III, 1,2-bis(methylsulfonyl)-1-(2-chloroethyl)-2-(2-chloroethyl)aminocarbonylhydrazine] here?
Answer: The value was 11 days and 11.0 days.

Question: And the T-C (experiment b, 20 mg/kg/injection, qd × 6 from day 12, ip)?
Answer: Its T-C is 5.5 days.

Question: What about the “T-C, growth delay” value (experiment b, 30 mg/kg/injection, qd × 6 from day 12, ip) of the same molecule?
Answer: The value was 13.5 days.
